Measurements from patent US20260191970A1, “CRBN LIGAND, PREPARATION METHOD THEREFOR, AND APPLICATION” (Shenzhen Zhongge Biological Technology Co., Ltd., priority 2023, published 2026).

The compounds below were run against T1, Human Cereblon WT GST-tagged protein (Homo sapiens, UniProt Q96SW2) (assay: CRBN binding assay (HTRF method)). Conditions: competition with Thalidomide-Red, 25° C. 1 h.
T1 construct: purchased CISBIO 64BDCRBNPEG
Protocol: In this experiment, the binding interaction between compounds and CRBN was detected, and based on the IC50 values, the affinity of the compounds for the CRBN target was evaluated.
The affinity of the compounds for CRBN was detected using CEREBLON BINDING KITS (CISBIO, 64 BDCRBNPEG) containing diluent #9, Human Cereblon WT GST-tagged protein, GST Eu Cryptate Antibody, and Thalidomide-Red.
20 nL of each of the compounds was transferred to a 384-well plate (PerkinElmer, 6007299) using an Ehco650 apparatus (Beckman, 650). 5 μL of 1× diluent #9 (CISBIO, 64BDCRBNPEG) was added to the 384-well plate, and then 5 μL of 1× Human Cereblon WT GST-tagged protein (CISBIO, 64BDCRBNPEG) was added. The plate was sealed with a plate sealer, shaken on a plate shaker (Kylin-Bell, MH-2) for 10 s, centrifuged at 1000 rpm for 1 min, and incubated at 25° C. for 5 min. 5 μL of 1×GST Eu Cryptate Antibody (CISBIO, 64BDCRBNPEG) and 5 μL of 1× Thalidomide-Red (CISBIO, 64BDCRBNPEG) were added to the 384-well plate. The plate was sealed with a plate sealer, shaken for 30 s, centrifuged at 1000 rpm for 1 min, and incubated at 25° C. for 1 h. The signals at 665 nm and 620 nm were measured using Envision (PerkinElmer, 2105-0020).
The IC50 values for compound activity were calculated using Graphpad Prism9 software based on the compound concentrations and the ratio of the signals at 665 nm and 620 nm. Calculation formula: […]

T1 sequence (Q96SW2 whole entry): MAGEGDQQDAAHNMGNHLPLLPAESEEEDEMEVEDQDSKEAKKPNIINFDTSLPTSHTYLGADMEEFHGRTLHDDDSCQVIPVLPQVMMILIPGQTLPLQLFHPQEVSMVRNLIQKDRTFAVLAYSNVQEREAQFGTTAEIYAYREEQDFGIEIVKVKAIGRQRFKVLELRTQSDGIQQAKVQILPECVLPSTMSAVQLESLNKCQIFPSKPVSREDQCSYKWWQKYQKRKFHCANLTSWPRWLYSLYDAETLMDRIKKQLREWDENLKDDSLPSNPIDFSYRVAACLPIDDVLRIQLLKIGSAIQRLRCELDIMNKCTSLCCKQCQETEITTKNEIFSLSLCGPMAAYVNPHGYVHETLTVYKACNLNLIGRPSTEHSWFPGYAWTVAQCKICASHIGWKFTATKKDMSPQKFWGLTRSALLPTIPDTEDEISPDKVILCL

Question: How did the IC50 turn out when `CC/C(NC1CCC(=O)NC1=O)=C1/C(=O)N(C)c2ccc(N)cc21` (single isomer, unassigned) [Compound 6-A] was run?
Answer: ≤ 2000 nM

Question: How did the IC50 turn out when `C/C(NC1CCC(=O)NC1=O)=C1/C(=O)N(C)c2ccc(N)cc21` (stereo not shown) [Compound 4] was run?
Answer: 2000 to 5000 nM

Question: With `CC/C(NC1CCC(=O)NC1=O)=C1/C(=O)N(C)c2ccc(N)cc21` (racemic) [Compound 6] as the compound, how does the IC50 read?
Answer: ≤ 2000 nM

Question: With `C/C(NC1CCC(=O)NC1=O)=C1/C(=O)Nc2ccc(Br)cc21` (stereo not shown) [Compound 1] as the compound, how does the IC50 read?
Answer: ≤ 2000 nM
